Laboratory results taken from patent US8168650B2, “Therapeutic uses of bicyclic ligands of sigma 2 receptor” (priority 2006, dated 2012).
Entries after “also recorded” stand apart in the source; their conditions may differ. Counter-ions that a name gives are not always drawn. Like-named read-outs stand apart in the source and are kept apart here.

Tests used:
[1] = target: T1, σ2 receptor (Rattus norvegicus, UniProt Q5U3Y7); experiment: σ2 receptor binding assay, [3H]DTG or [3H]RHM-1; settings: for σ1/σ2 Ratio: Ki for σ1/Ki for σ2
T1 construct: from tissue; host or cells: rat liver membrane homogenates
T1 sequence (Q5U3Y7 1-176): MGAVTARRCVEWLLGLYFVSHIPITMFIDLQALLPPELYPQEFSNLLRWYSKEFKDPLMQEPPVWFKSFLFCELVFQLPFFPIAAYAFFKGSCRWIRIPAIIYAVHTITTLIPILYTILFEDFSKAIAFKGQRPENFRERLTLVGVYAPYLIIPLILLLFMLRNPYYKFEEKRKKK
Method: (§1) In vitro binding studies were conducted in order to determine the affinity of the target compounds at σ1 and σ2 receptors.
(§2) In this example, test compounds were dissolved in N,N-dimethylformamide (DMF), dimethylsulfoxide (DMSO) or ethanol and then diluted in 50 mM Tris-HCl, pH 7.4 buffer containing 150 mM NaCl and 100 mM EDTA. Membrane homogenates were made from guinea pig brain for σ1 binding assays and rat liver for σ2 binding assays. Membrane homogenates were diluted with 50 mM Tris-HCl buffer, pH 8.0, and incubated at 25° C. in a total volume of 150 μL in 96-well plates with the radioligand and test compounds with concentrations ranging from 0.1 nM to 10 μM. After incubation was completed, the reactions were terminated by the addition of 150 μL of ice-cold wash buffer (10 mM Tris-HCl, 150 mM NaCl, pH 7.4) using a 96-channel transfer pipette (Fisher Scientific, Pittsburgh, Pa.), and the samples harvested and filtered rapidly through 96-well fiberglass filter plate (Millipore, Billerica, Mass.) that had been presoaked with 100 μL of 50 mM Tris-HCl buffer, pH 8.0, for 1 h. Each filter was washed three times with 200 μL of ice cold wash buffer.
(§3) Ki values were calculated using the method of Cheng and Prusoff20 and represent mean values±SEM.

[2] = target: T2, σ1 receptor (Cavia porcellus, UniProt Q60492); experiment: biochemical
T2 sequence (Q60492 whole entry): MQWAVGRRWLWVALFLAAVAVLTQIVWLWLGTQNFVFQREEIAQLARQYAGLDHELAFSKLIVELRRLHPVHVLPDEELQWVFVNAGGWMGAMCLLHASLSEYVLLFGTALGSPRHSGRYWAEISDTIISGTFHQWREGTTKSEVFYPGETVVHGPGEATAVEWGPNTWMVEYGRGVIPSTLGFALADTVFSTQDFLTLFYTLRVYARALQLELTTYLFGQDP
Method: as §1, §2, §3

[3] = target: T2, σ1 receptor
Method: as §1, §2, §3

[4] = Ki σ2, inhibiting binding of [3H]DTG or [3H]RHM-1 to rat liver homogenates, mean ± SEM
[5] = inhibiting binding of [3H]DTG or [3H]RHM-1 to rat liver homogenates, mean ± SEM, read-out: Ki σ2

| Compound | affinity and selectivity for σ2 versus σ1 receptors (in words) [1] | σ1/σ2 Ratio [1] | Ki [1, 4] [nM] | Ki [2] [nM] | affinity and selectivity for σ2 versus σ1 receptors (in words) ([1]; hydrochloride) | Ki [1, 5] [nM] | Ki [3] [nM] | Ki ([1]; read-out: Ki σ2) [nM] |
| --- | --- | --- | --- | --- | --- | --- | --- | --- |
| COc1ccc(C)cc1NC(=O)OC1CC2CCCC(C1)N2CCCCN (stereo not drawn) [Compound 1a, N-(9-(4-Aminobutyl)-9-azabicyclo[3.3.1]nonan-3α-yl)-N-(2-methoxy-5-methyl-phenyl)carbamate hydrochloride] | moderate affinity and selectivity | 193 | 12.9 ± 0.46 | 2490 ± 271 |  |  |  |  |
| COc1ccc(C)cc1NC(=O)O[C@H]1C[C@H]2CCC[C@@H](C1)N2CCCCCCN.Cl [Compound 1b, N-(9-(6-Aminohexyl)-9-azabicyclo[3.3.1]nonan-3α-yl)-N-(2-methoxy-5-methyl-phenyl)carbamate hydrochloride] |  | 273 |  |  | highest affinity and selectivity; also recorded: moderate affinity and selectivity | 5.19 ± 0.8 | 1420 ± 439 |  |
| COc1ccc(C)cc1NC(=O)OC1CC2CCCC(C1)N2CCCCCCCCCCN (stereo not drawn) [Compound 1c, N-(9-(10-Aminodecyl)-9-azabicyclo[3.3.1]nonan-3α-yl)-N-(2-methoxy-5-methylphenyl)carbamate hydrochloride] | high affinity at σ2 receptor but low selectivity | 19 |  |  |  | 7.07 ± 1.27 | 134 ± 11.9 |  |
| COc1ccc(C)cc1NC(=O)OC1CC2CCCC(C1)N2CCCCNCc1cccc(Br)c1 (stereo not drawn) [Compound 2a, N-(9-(4-(3′-Bromobenzylamino)butyl)-9-azabicyclo[3.3.1]nonan-3α-yl)-N-(2-methoxy-5-methylphenyl)carbamate oxalate] |  | 21.66 | 3.06 ± 0.41 | 66.3 ± 5.3 |  |  |  |  |
| COc1ccc(C)cc1NC(=O)OC1CC2CCCC(C1)N2CCCCNCc1cccc(F)c1 (stereo not drawn) [Compound 2b, N-(9-(4-(3′-Fluorobenzylamino)butyl)-9-azabicyclo[3.3.1]nonan-3α-yl)-N-(2-methoxy-5-methylphenyl)carbamate oxalate] |  | 0.07 | 4.13 ± 0.33 | 0.3 ± 0.05 |  |  |  |  |
| COc1ccc(C)cc1NC(=O)O[C@H]1C[C@H]2CCC[C@@H](C1)N2CCCCNCc1cccc(I)c1 [Compound 2c, N-(9-(4-(3′-Iodobenzylamino)butyl)-9-azabicyclo-[3.3.1]nonan-3α-yl)-N-(2-methoxy-5-methylphenyl)carbamate oxalate] |  | 52.77 | 1.21 ± 0.14 | 63.9 ± 5.61 |  |  |  |  |
| COc1ccc(C)cc1NC(=O)OC1CC2CCCC(C1)N2CCCCNCc1ccc(Br)cc1 (stereo not drawn) [Compound 2d, N-(9-(4-(4′-Bromobenzylamino)butyl)-9-azabicyclo[3.3.1]nonan-3α-yl)-N-(2-methoxy-5-methylphenyl)carbamates] |  | 0.42 | 4.07 ± 0.61 | 1.7 ± 0.28 |  |  |  |  |
| COc1ccc(C)cc1NC(=O)OC1CC2CCCC(C1)N2CCCCNCc1ccc(F)cc1 (stereo not drawn) [Compound 2e, N-(9-(4-(4′-Fluorobenzylamino)butyl)-9-azabicyclo[3.3.1]nonan-3α-yl)-N-(2-methoxy-5-methylphenyl)carbamate oxalate] |  | 0.76 | 29.1 ± 3.48 | 22.1 ± 1.58 |  |  |  |  |
| COc1ccc(C)cc1NC(=O)OC1CC2CCCC(C1)N2CCCCNCc1ccc(I)cc1 (stereo not drawn) [Compound 2f, N-(9-(4-(4′-Iodobenzylamino)butyl)-9-azabicyclo[3.3.1]nonan-3α-yl)-N-(2-methoxy-5-methylphenyl)carbamate oxalate] |  | 0.08 | 4 ± 0.54 | 0.34 ± 0.03 |  |  |  |  |
| COc1ccc(C)cc1NC(=O)OC1CC2CCCC(C1)N2CCCCCCNCc1cccc(Br)c1 (stereo not drawn) [Compound 3a, N-(9-(6-(3′-Bromobenzylamino)hexyl)-9-azabicyclo[3.3.1]nonan-3α-yl)-N-(2-methoxy-5-methylphenyl)carbamate oxalate] |  | 12.57 | 8.94 ± 0.61 | 112 ± 4.8 |  |  |  |  |
| COc1ccc(C)cc1NC(=O)OC1CC2CCCC(C1)N2CCCCCCNCc1cccc(F)c1 (stereo not drawn) [Compound 3b, N-(9-(6-(3′-Fluorobenzylamino)hexyl)-9-azabicyclo[3.3.1]nonan-3α-yl)-N-(2-methoxy-5-methylphenyl)carbamate oxalate] |  | 0.09 | 4.85 ± 0.49 | 0.46 ± 0.05 |  |  |  |  |
| COc1ccc(C)cc1NC(=O)O[C@H]1C[C@H]2CCC[C@@H](C1)N2CCCCCCNCc1cccc(I)c1 [Compound 3c, N-(9-(6-(3′-Iodobenzylamino)hexyl)-9-azabicyclo-[3.3.1]nonan-3α-yl)-N-(2-methoxy-5-methylphenyl)carbamate oxalate] |  | 0.02 | 32.7 ± 5.93 | 0.56 ± 0.06 |  |  |  |  |
| COc1ccc(C)cc1NC(=O)OC1CC2CCCC(C1)N2CCCCCCNCc1ccc(Br)cc1 (stereo not drawn) [Compound 3d, N-(9-(6-(4′-Bromobenzylamino)hexyl)-9-azabicyclo[3.3.1]nonan-3α-yl)-N-(2-methoxy-5-methylphenyl)carbamate oxalate] |  | 4.35 | 9.93 ± 1.61 | 43.2 ± 2.88 |  |  |  |  |
| COc1ccc(C)cc1NC(=O)OC1CC2CCCC(C1)N2CCCCCCNCc1ccc(F)cc1 (stereo not drawn) [Compound 3e, N-(9-(6-(4′-Fluorobenzylamino)hexyl)-9-azabicyclo[3.3.1]nonan-3α-yl)-N-(2-methoxy-5-methylphenyl)carbamate oxalate] |  | 0.01 | 70.9 ± 4.38 | 1 ± 0.26 |  |  |  |  |
| COc1ccc(C)cc1NC(=O)OC1CC2CCCC(C1)N2CCCCCCNCc1ccc(I)cc1 (stereo not drawn) [Compound 3f, N-(9-(6-(4′-Iodobenzylamino)hexyl)-9-azabicyclo[3.3.1]nonan-3α-yl)-N-(2-methoxy-5-methylphenyl)carbamate oxalate] |  | 0.02 | 35.9 ± 1.5 | 0.65 ± 0.09 |  |  |  |  |
| COc1ccc(C)cc1NC(=O)OC1CC2CCCC(C1)N2CCCCCCNC(=O)c1ccc(Cl)cc1 (centres unmarked) [Compound 4a] | high affinity and selectivity | 392 | 3.56 ± 0.08 | 1400 ± 64 |  |  |  |  |
| COc1ccc(C)cc1NC(=O)OC1CC2CCCC(C1)N2CCCCCCNC(=O)c1ccc(Br)cc1 (stereo not drawn) [Compound 4b, N-(9-(4-(4′-Bromobenzoylamino)hexyl)-9-azabicyclo[3.3.1]nonan-3α-yl)-N-(2-methoxy-5-methylphenyl)carbamate oxalate] |  | 2.84 |  | 2040 ± 98 |  |  |  | 719 ± 84 |
| COc1ccc(C)cc1NC(=O)OC1CC2CCCC(C1)N2CCCCCCNS(=O)(=O)c1cccc2c(N(C)C)cccc12 (stereo not drawn) [Compound 9, N-(9-(6-(5-Dimethylamino-1-naphthalenesulfonamido))hexyl)-9-azabicyclo[3.3.1]-nonan-3α-yl-N-(2-methoxy-5-methylphenyl)carbamate oxalate] | moderate affinity and selectivity | 85.43 |  | 12600 |  |  |  | 148 ± 8.85 |
| COc1ccc(C)cc1NC(=O)OC1C[C@H]2CCC[C@@H](C1)N2CCCCCCN (some centres unmarked) [SV119] |  | 273 |  |  |  | 5.2 | 1420 |  |
| N-(9-(4-(4′-Fluorobenzoylamino)hexyl)-9-azabicyclo[3.3.1]nonan-3α-yl)-N-(2-methoxy-5-methylphenyl)carbamate oxalate [Compound 4c] |  | 2.50 |  |  |  | 497 ± 103 | 1240 ± 212 |  |
| N-(9-(4-(40-Iodobenzoylamino)hexyl)-9-azabicyclo[3.3.1]nonan-3α-yl)-N-(2-methoxy-5-methylphenyl)carbamate oxalate [Compound 4d] |  | 1.40 |  |  |  | 1010 | 1410 ± 318 |  |
